In ChEMBL document CHEMBL1136845, “Synthesis, biological activity and tubulin binding poses of 1-deoxy-9-(R)-dihydrotaxane analogs” (Bioorg Med Chem Lett, 2009):
Values after ≈ are worked out from the molar mass of the structure shown.

How the values were obtained:
A2780 = test: Cytotoxicity against human A2780 cells after 72 hrs by MTT assay; format: functional, cell-based; conditions: A2780, 72 h
A549 = test: Cytotoxicity against human A549 cells after 72 hrs by MTT assay; format: functional, cell-based; conditions: A549, 72 h
[1] = Inhibition of GTP-[…] tubulin polymerization

ED50 [1]	SMILES	IC50 (A2780)	IC50 (A549)
1.9 µM	CC(=O)O[C@@]12CO[C@@H]1C[C@H](O)[C@]1(C)[C@@H]2[C@H](OC(=O)c2ccccc2)[C@@H]2C[C@H](OC(=O)[C@H](O)[C@@H](NC(=O)c3ccccc3)c3ccccc3)C(C)=C([C@@H](O)[C@@H]1O)C2(C)C	0.11 ng/mL (≈ 0.138 nM)	0.18 ng/mL (≈ 0.226 nM)
0.52 µM	CC(=O)O[C@H]1C(=O)[C@@]2(C)[C@H]([C@H](OC(=O)c3ccccc3)[C@]3(O)C[C@H](OC(=O)[C@H](O)[C@@H](NC(=O)c4ccccc4)c4ccccc4)C(C)=C1C3(C)C)[C@]1(OC(C)=O)CO[C@@H]1C[C@@H]2O [PACLITAXEL]	0.13 ng/mL (≈ 0.152 nM)	0.29 ng/mL (≈ 0.34 nM)
5.2 µM	CC(=O)O[C@@]12CO[C@@H]1C[C@H](O)[C@]1(C)[C@@H]2[C@H](OC(=O)c2ccccc2)[C@@H]2C[C@H](OC(=O)[C@H](O)[C@@H](NC(=O)c3ccccc3)c3ccccc3)C(C)=C([C@H]3OC(C)(C)O[C@@H]31)C2(C)C	1.54 ng/mL (≈ 1.84 nM)	2.87 ng/mL (≈ 3.42 nM)
